Laboratory results reported in patent publication US20080227863A1, “Organic Compounds” (Novartis AG, priority 2005, published 2008).

melting point: 154 to 155 °C
Compound: N#CC(C#N)(COc1ccccc1Cl)NC(=O)c1ccc(OC(F)(F)F)cc1 [Compound 1.3, N-[2-(2-Chloro-phenoxy)-1,1-dicyano-ethyl]-4-trifluoromethoxy-benzamide]
